Results as given in article PMC2248166, “Quantitative peptide binding motifs for 19 human and mouse MHC class I molecules derived using positional scanning combinatorial peptide libraries” (Immunome Research, 2008).
Where a SMILES comes first, the peptide text is derived from it.

Experiments:
Assay in all cases: biochemical
Assay type in all cases: binding
[1] = target: HLA A*3201 (Homo sapiens, UniProt P04439, A270S/D101S/D185E/E176V/E277Q/F133L/G103R/G107R/G231S/H175R/I121M/I218V/I322F/K168Q/L105A/L300P/L318F/M331R/P208A/P217A/Q94H/R106L/R138Q/S129P/T104I/T323A/T345S/V100E/V321M/V358M)
[2] = target: HLA A*3001 (Homo sapiens, UniProt P04439, D140H/D185E/E176W/F33S/G80R/H175R/K168Q/R138E/R41S)
HLA A*3001, sequence (P04439 25-365 limits assumed, stated change not applied): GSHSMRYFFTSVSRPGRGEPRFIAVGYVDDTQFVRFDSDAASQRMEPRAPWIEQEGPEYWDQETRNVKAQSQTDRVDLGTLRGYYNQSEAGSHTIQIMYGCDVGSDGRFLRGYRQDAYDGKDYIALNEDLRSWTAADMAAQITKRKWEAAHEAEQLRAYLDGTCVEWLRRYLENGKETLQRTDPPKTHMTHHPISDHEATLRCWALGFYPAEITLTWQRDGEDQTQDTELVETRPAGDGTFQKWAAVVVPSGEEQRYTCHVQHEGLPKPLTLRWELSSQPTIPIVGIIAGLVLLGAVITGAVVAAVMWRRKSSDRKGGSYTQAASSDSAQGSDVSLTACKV

[3] = target: HLA B*1501 (Homo sapiens, UniProt P01889, A329T/A93T/A95T/C349S/D201E/D98Y/E187L/E204Q/E69M/E70A/K202T/N87E/Q94N/R155S/R180W/S121R/S35A/S48A/V306I/V36M/Y140S/Y91S)
[4] = target: HLA B*1503 (Homo sapiens, UniProt P01889, A329T/A93T/A95T/C349S/D201E/D98Y/E187L/E204Q/K202T/N87E/Q94N/R155S/R180L/S121R/S35A/V306I/V36M/Y140S/Y91S)

Structure (SMILES) | IC50 [1] | IC50 [2] | IC50 [3] | IC50 [4]
CC(C)[C@H](NC(=O)[C@H](Cc1ccccc1)NC(=O)[C@@H](NC(=O)[C@H](Cc1c[nH]cn1)NC(=O)[C@H](CCC(=O)O)NC(=O)[C@H](CCCNC(=N)N)NC(=O)[C@@H](NC(=O)[C@@H](N)CCCCN)C(C)C)[C@@H](C)O)C(=O)N[C@@H](CCCCN)C(=O)O [3102.0071] (H-KVREHTFVK-OH) | 149 nM | 2.1 nM | – | –
CC[C@H](C)[C@H](N)C(=O)N[C@H](C(=O)N[C@@H](Cc1ccc(O)cc1)C(=O)N[C@@H](CO)C(=O)N[C@@H](CC(C)C)C(=O)N[C@H](C(=O)N[C@H](C(=O)N[C@H](C(=O)N[C@H](C(=O)O)[C@@H](C)CC)[C@@H](C)O)[C@@H](C)O)C(C)C)C(C)C [3102.0292] (H-IVYSLVTTI-OH) | 3.6 nM | 16 nM | – | –
CC[C@H](C)[C@H](NC(=O)[C@@H](NC(=O)[C@@H](N)CCCCN)[C@@H](C)O)C(=O)N[C@@H](Cc1ccc(O)cc1)C(=O)N[C@@H](C)C(=O)N[C@H](C(=O)N[C@@H](CC(=O)O)C(=O)N[C@@H](CO)C(=O)N[C@@H](Cc1ccccc1)C(=O)O)C(C)C [3102.0340] (H-KTIYAVDSF-OH) | 6.8 nM | – | 4 nM | –
CC[C@H](C)[C@H](NC(=O)[C@@H](NC(=O)[C@@H](N)CC(C)C)[C@@H](C)O)C(=O)N[C@@H](C)C(=O)N[C@@H](CS)C(=O)N[C@@H](CCCNC(=N)N)C(=O)N[C@H](C(=O)N[C@@H](CO)C(=O)N[C@@H](CC(C)C)C(=O)O)C(C)C [3102.0376] (H-LTIACRVSL-OH) | 96 nM | – | 76 nM | –
CC[C@H](C)[C@H](N)C(=O)N[C@H](C(=O)N[C@H](C(=O)N1CCC[C@H]1C(=O)N[C@@H](CC(C)C)C(=O)N[C@@H](CO)C(=O)N[C@H](C(=O)N[C@@H](CO)C(=O)N[C@H](C(=O)O)[C@@H](C)CC)C(C)C)[C@@H](C)CC)[C@@H](C)CC [3102.0502] (H-IIIPLSVSI-OH) | 70 nM | – | 299 nM | –
CC[C@H](C)[C@H](N)C(=O)N[C@H](C(=O)N[C@@H](C)C(=O)N[C@@H](Cc1c[nH]cn1)C(=O)N[C@@H](CC(C)C)C(=O)N[C@H](C(=O)N[C@@H](CC(N)=O)C(=O)N[C@@H](CO)C(=O)N[C@@H](CC(C)C)C(=O)O)C(C)C)[C@@H](C)O [3102.0503] (H-ITAHLVNSL-OH) | 183 nM | – | 6.5 nM | –
CC(C)C[C@H](N)C(=O)N[C@H](C(=O)NCC(=O)N[C@H](C(=O)N[C@@H](Cc1ccccc1)C(=O)N[C@H](C(=O)N[C@H](C(=O)N[C@@H](C)C(=O)N[C@@H](Cc1ccccc1)C(=O)O)[C@@H](C)O)C(C)C)[C@@H](C)O)[C@@H](C)O [3102.0515] (H-LTGTFVTAF-OH) | 8.8 nM | – | – | –
CSCC[C@H](NC(=O)[C@@H](N)C(C)C)C(=O)N[C@@H](Cc1ccc(O)cc1)C(=O)N[C@@H](C)C(=O)N[C@@H](Cc1ccccc1)C(=O)N[C@H](C(=O)N[C@H](C(=O)N1CCC[C@H]1C(=O)N[C@@H](CC(C)C)C(=O)O)[C@@H](C)O)[C@@H](C)O [3102.0516] (H-VMYAFTTPL-OH) | 0.29 nM | – | – | –
CC[C@H](C)[C@H](NC(=O)[C@H](CC(N)=O)NC(=O)[C@H](CCSC)NC(=O)[C@@H](NC(=O)[C@@H](N)CCSC)[C@@H](C)O)C(=O)N[C@H](C(=O)N[C@@H](CC(N)=O)C(=O)N[C@@H](Cc1ccccc1)C(=O)N[C@@H](Cc1ccccc1)C(=O)O)C(C)C [3102.0518] (H-MTMNIVNFF-OH) | 1.9 nM | – | – | –
CC(C)[C@H](NC(=O)[C@H](Cc1ccc(O)cc1)NC(=O)[C@@H](NC(=O)[C@@H](N)CCCNC(=N)N)C(C)C)C(=O)NCC(=O)N[C@@H](CC(N)=O)C(=O)N[C@H](C(=O)N[C@@H](C)C(=O)N[C@@H](Cc1c[nH]c2ccccc12)C(=O)O)C(C)C [3102.0520] (H-RVYVGNVAW-OH) | 1.1 nM | – | – | –
CC[C@H](C)[C@H](NC(=O)[C@H](CCCCN)NC(=O)[C@H](CC(C)C)NC(=O)[C@@H](NC(=O)[C@H](Cc1ccc(O)cc1)NC(=O)[C@H](CC(N)=O)NC(=O)[C@H](CC(N)=O)NC(=O)[C@H](CC(C)C)NC(=O)[C@@H](N)CC(C)C)[C@@H](C)O)C(=O)O [3102.0521] (H-LLNNYTLKI-OH) | 25 nM | – | – | –
CC(C)C[C@H](NC(=O)[C@@H](N)CCCNC(=N)N)C(=O)N[C@@H](Cc1ccccc1)C(=O)N[C@@H](Cc1ccc(O)cc1)C(=O)N[C@H](C(=O)N[C@@H](Cc1ccccc1)C(=O)N[C@@H](Cc1ccccc1)C(=O)N[C@@H](CO)C(=O)N[C@@H](Cc1ccc(O)cc1)C(=O)O)[C@@H](C)O [3102.0803] (H-RLFYTFFSY-OH) | 0.19 nM | – | 0.37 nM | –
CC[C@H](C)[C@H](NC(=O)[C@H](CC(C)C)NC(=O)[C@@H](N)CCCNC(=N)N)C(=O)N[C@H](C(=O)N[C@@H](CC(C)C)C(=O)N[C@@H](Cc1ccccc1)C(=O)N[C@@H](CCC(=O)O)C(=O)N[C@H](C(=O)N[C@@H](Cc1ccccc1)C(=O)O)C(C)C)C(C)C [3102.0817] (H-RLIVLFEVF-OH) | 13 nM | – | 6.8 nM | –
CC[C@H](C)[C@H](NC(=O)[C@@H](N)CCSC)C(=O)N[C@@H](Cc1ccccc1)C(=O)N[C@@H](Cc1ccccc1)C(=O)N[C@@H](CC(N)=O)C(=O)N1CCC[C@H]1C(=O)N[C@H](C(=O)N[C@@H](CO)C(=O)N[C@@H](Cc1ccccc1)C(=O)O)C(C)C [3102.0841] (H-MIFFNPVSF-OH) | 0.46 nM | – | 9.4 nM | –
CC[C@H](C)[C@H](NC(=O)[C@H](CCCCN)NC(=O)[C@H](Cc1ccc(O)cc1)NC(=O)[C@H](Cc1ccccc1)NC(=O)[C@H](CCSC)NC(=O)[C@H](Cc1ccc(O)cc1)NC(=O)[C@H](CCC(N)=O)NC(=O)[C@@H](N)CCCNC(=N)N)C(=O)N[C@@H](Cc1ccccc1)C(=O)O [3102.1055] (H-RQYMFYKIF-OH) | 19 nM | – | – | 0.07 nM
CC[C@H](C)[C@H](NC(=O)[C@H](C)NC(=O)[C@H](Cc1ccccc1)NC(=O)[C@H](CCC(N)=O)NC(=O)[C@@H](N)Cc1c[nH]c2ccccc12)C(=O)N[C@@H](Cc1c[nH]cn1)C(=O)N[C@@H](Cc1ccc(O)cc1)C(=O)N[C@@H](CO)C(=O)N[C@@H](Cc1ccccc1)C(=O)O [3102.1096] (H-WQFAIHYSF-OH) | 2.8 nM | – | – | 4.5 nM
CC[C@H](C)[C@H](N)C(=O)N[C@@H](CC(C)C)C(=O)N[C@@H](Cc1ccccc1)C(=O)N[C@@H](Cc1ccc(O)cc1)C(=O)N[C@@H](Cc1ccccc1)C(=O)N[C@@H](C)C(=O)N[C@@H](CC(N)=O)C(=O)NCC(=O)N[C@H](C(=O)O)[C@@H](C)CC [3102.1147] (H-ILFYFANGI-OH) | 93 nM | – | – | –
CC[C@H](C)[C@H](N)C(=O)N[C@@H](CCSC)C(=O)N[C@@H](Cc1ccccc1)C(=O)N[C@@H](C)C(=O)N[C@@H](CCCCN)C(=O)N[C@H](C(=O)N[C@@H](CC(C)C)C(=O)N[C@@H](CC(=O)O)C(=O)N[C@@H](Cc1ccccc1)C(=O)O)[C@@H](C)O [3102.1190] (H-IMFAKTLDF-OH) | 6.8 nM | – | – | 0.31 nM
CC[C@H](C)[C@H](NC(=O)[C@H](Cc1ccc(O)cc1)NC(=O)[C@H](Cc1c[nH]c2ccccc12)NC(=O)[C@H](CCSC)NC(=O)[C@@H](N)CO)C(=O)N1CCC[C@H]1C(=O)N[C@@H](CC(N)=O)C(=O)N[C@H](C(=O)N[C@@H](Cc1ccccc1)C(=O)O)C(C)C [3102.1192] (H-SMWYIPNVF-OH) | 5.1 nM | – | – | 0.72 nM
CC[C@H](C)[C@H](N)C(=O)N[C@@H](CCSC)C(=O)N[C@@H](Cc1ccccc1)C(=O)N[C@@H](CO)C(=O)N[C@@H](CCCCN)C(=O)N[C@@H](CO)C(=O)N[C@@H](CC(C)C)C(=O)N[C@@H](CC(N)=O)C(=O)N[C@@H](Cc1ccccc1)C(=O)O [3102.1204] (H-IMFSKSLNF-OH) | 15 nM | – | – | 0.23 nM
CC(C)C[C@H](NC(=O)[C@@H](NC(=O)[C@H](CC(N)=O)NC(=O)[C@H](C)NC(=O)[C@H](CC(N)=O)NC(=O)[C@H](Cc1ccc(O)cc1)NC(=O)[C@H](Cc1ccccc1)NC(=O)[C@H](CCC(N)=O)NC(=O)[C@@H](N)CCCNC(=N)N)C(C)C)C(=O)O [3102.1205] (H-RQFYNANVL-OH) | 37 nM | – | – | 0.24 nM
CC[C@H](C)[C@H](NC(=O)[C@@H](NC(=O)[C@@H]1CCCN1C(=O)[C@H](CC(C)C)NC(=O)[C@H](Cc1ccccc1)NC(=O)[C@H](CO)NC(=O)[C@H](CCSC)NC(=O)[C@@H](N)CCCCN)[C@@H](C)CC)C(=O)N[C@@H](Cc1ccccc1)C(=O)O [3102.1291] (H-KMSFLPIIF-OH) | 6.7 nM | – | – | 0.08 nM
CC[C@H](C)[C@H](N)C(=O)N[C@@H](CC(C)C)C(=O)N[C@@H](CCSC)C(=O)N[C@H](C(=O)N[C@@H](Cc1ccccc1)C(=O)N[C@H](C(=O)N[C@@H](CO)C(=O)N[C@@H](CO)C(=O)N[C@@H](Cc1ccccc1)C(=O)O)[C@@H](C)CC)[C@@H](C)CC [3102.1302] (H-ILMIFISSF-OH) | 87 nM | – | – | 12 nM
CC[C@H](C)[C@H](N)C(=O)N[C@H](C(=O)N[C@@H](Cc1ccccc1)C(=O)N[C@@H](CCSC)C(=O)N[C@@H](CC(N)=O)C(=O)N[C@@H](CC(C)C)C(=O)N[C@@H](Cc1ccc(O)cc1)C(=O)N[C@@H](CO)C(=O)N[C@@H](Cc1ccccc1)C(=O)O)[C@@H](C)CC [3102.1328] (H-IIFMNLYSF-OH) | 1.3 nM | – | – | 11 nM
CSCC[C@H](NC(=O)[C@H](Cc1ccc(O)cc1)NC(=O)[C@H](CC(C)C)NC(=O)[C@@H](N)CC(C)C)C(=O)N[C@@H](Cc1ccccc1)C(=O)N1CCC[C@H]1C(=O)N[C@@H](CC(N)=O)C(=O)N[C@@H](CC(C)C)C(=O)N[C@@H](Cc1ccccc1)C(=O)O [3102.1335] (H-LLYMFPNLF-OH) | 90 nM | – | – | 0.11 nM
